Laboratory results: PubChem BioAssay AID272 (DTP/NCI, 2004)
Records with an inconclusive call do not appear.

System: Lewis lung carcinoma i.m., BDF1 mice, T/C %
Experiment: NCI In Vivo Anticancer Drug Screen. Data for tumor model Lewis Lung Carcinoma (intramuscular) in B6D2F1 (BDF1) mice
Conditions: schedule: Q01DX011 (ip)
In short: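 Compound given to mice with transplantable tumours; survival or tumour size compared against the vehicle control group, reported as T divided by C.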

[1] = endpoint: median survival time, dose: 12.5 mg/kg/injection, vehicle: saline with Tween-80, higher = longer survival

Question: Which T/C (endpoint: mean tumor weight (est.), dose: 6.25 mg/kg/injection, vehicle: saline with Tween-80, higher = larger tumour) does the source give for `CCC[CH2][Sn](=[S])[CH2]CCC` here?
Answer: Its T/C is 103 % of control.

Question: And the T/C (endpoint: mean tumor weight (est.), dose: 12.5 mg/kg/injection, vehicle: saline with Tween-80, higher = larger tumour)?
Answer: The T/C was 77 % of control.

Question: And the T/C (endpoint: mean tumor weight (est.), dose: 25.0 mg/kg/injection, vehicle: saline with Tween-80, higher = larger tumour)?
Answer: Its T/C is 55 % of control.

Question: And the T/C (endpoint: median survival time, dose: 6.25 mg/kg/injection, vehicle: saline with Tween-80, higher = longer survival)?
Answer: The T/C was 102 % of control.

Question: And the T/C [1]?
Answer: Its T/C is 116 % of control.

Question: What about the T/C (endpoint: median survival time, dose: 25.0 mg/kg/injection, vehicle: saline with Tween-80, higher = longer survival) of the same molecule?
Answer: The T/C was 112 % of control.

Question: With `COc1ccc2c(Nc3ccc(NS(C)(=O)=O)cc3)c3ccccc3nc2c1` as the molecule, how does the T/C (endpoint: mean tumor weight, dose: 12.5 mg/kg/injection, vehicle: saline with Tween-80, higher = larger tumour) read?
Answer: The T/C was 52 % of control.

Question: What about the T/C [1] of the same molecule?
Answer: The T/C was 107 % of control.

Question: For `Nc1nc2c(c(=O)[nH]1)NC(CCNc1ccc(C(=O)NC(CCC(=O)O)C(=O)O)cc1)CN2` (centres undefined), which T/C (endpoint: mean tumor weight (est.), dose: 3.13 mg/kg/injection, vehicle: other, higher = larger tumour) is on record?
Answer: The T/C was 112 % of control.

Question: And the T/C (endpoint: mean tumor weight (est.), dose: 6.25 mg/kg/injection, vehicle: other, higher = larger tumour)?
Answer: Its T/C is 81 % of control.

Question: What about the T/C (endpoint: mean tumor weight (est.), dose: 12.5 mg/kg/injection, vehicle: other, higher = larger tumour) of the same molecule?
Answer: Its T/C is 104 % of control.

Question: What about the T/C (endpoint: mean tumor weight (est.), dose: 25.0 mg/kg/injection, vehicle: other, higher = larger tumour) of the same molecule?
Answer: The T/C was 99 % of control.

Question: And the T/C (endpoint: mean tumor weight (est.), dose: 50.0 mg/kg/injection, vehicle: other, higher = larger tumour)?
Answer: The T/C was 68 % of control.

Question: What about the T/C (endpoint: mean tumor weight (est.), dose: 100.0 mg/kg/injection, vehicle: other, higher = larger tumour) of the same molecule?
Answer: Its T/C is 63 % of control.

Question: And the T/C (endpoint: mean tumor weight, dose: 6.25 mg/kg/injection, vehicle: other, higher = larger tumour)?
Answer: The T/C was 100 % of control.

Question: And the T/C (endpoint: mean tumor weight, dose: 25.0 mg/kg/injection, vehicle: other, higher = larger tumour)?
Answer: Its T/C is 101 % of control.

Question: And the T/C (endpoint: mean tumor weight, dose: 50.0 mg/kg/injection, vehicle: other, higher = larger tumour)?
Answer: The T/C was 78 % of control.

Question: What about the T/C (endpoint: mean tumor weight, dose: 100.0 mg/kg/injection, vehicle: other, higher = larger tumour) of the same molecule?
Answer: Its T/C is 68 % of control.

Question: And the T/C (endpoint: median survival time, dose: 6.25 mg/kg/injection, vehicle: other, higher = longer survival)?
Answer: Its T/C is 94 % of control.

Question: And the T/C (endpoint: median survival time, dose: 12.5 mg/kg/injection, vehicle: other, higher = longer survival)?
Answer: The T/C was 103 % of control.

Question: And the T/C (endpoint: median survival time, dose: 25.0 mg/kg/injection, vehicle: other, higher = longer survival)?
Answer: Its T/C is 98 % of control.

Question: And the T/C (endpoint: median survival time, dose: 100.0 mg/kg/injection, vehicle: other, higher = longer survival)?
Answer: Its T/C is 108 % of control.

Question: With `CC1(C)N=C(N)N=C(N)N1c1ccc(CCc2ccccc2)cc1` as the molecule, how does the T/C (endpoint: mean tumor weight, dose: 12.5 mg/kg/injection, vehicle: saline, higher = larger tumour) read?
Answer: The T/C was 84 % of control.

Question: What about the T/C (endpoint: mean tumor weight, dose: 25.0 mg/kg/injection, vehicle: saline, higher = larger tumour) of the same molecule?
Answer: The T/C was 46 % of control.

Question: What about the T/C (endpoint: median survival time, dose: 12.5 mg/kg/injection, vehicle: saline, higher = longer survival) of the same molecule?
Answer: Its T/C is 104 % of control.

Question: What about the T/C (endpoint: median survival time, dose: 25.0 mg/kg/injection, vehicle: saline, higher = longer survival) of the same molecule?
Answer: Its T/C is 89 % of control.

Question: Which T/C (endpoint: mean tumor weight, dose: 1.25 mg/kg/injection, vehicle: saline, higher = larger tumour) does the source give for `CC1(C)N=C(N)N=C(N)N1c1ccc(CCCCc2ccc(Cl)cc2Cl)cc1` here?
Answer: Its T/C is 65 % of control.

Question: And the T/C (endpoint: mean tumor weight, dose: 2.5 mg/kg/injection, vehicle: saline, higher = larger tumour)?
Answer: The T/C was 71 % of control.

Question: And the T/C (endpoint: mean tumor weight, dose: 5.0 mg/kg/injection, vehicle: saline, higher = larger tumour)?
Answer: The T/C was 31 % of control.

Question: What about the T/C (endpoint: mean tumor weight, dose: 10.0 mg/kg/injection, vehicle: saline, higher = larger tumour) of the same molecule?
Answer: Its T/C is 65 % of control.

Question: And the T/C (endpoint: median survival time, dose: 1.25 mg/kg/injection, vehicle: saline, higher = longer survival)?
Answer: Its T/C is 110 % of control.

Question: And the T/C (endpoint: median survival time, dose: 2.5 mg/kg/injection, vehicle: saline, higher = longer survival)?
Answer: Its T/C is 93 % of control.

Question: And the T/C (endpoint: median survival time, dose: 5.0 mg/kg/injection, vehicle: saline, higher = longer survival)?
Answer: The T/C was 104 % of control.

Question: What about the T/C (endpoint: median survival time, dose: 10.0 mg/kg/injection, vehicle: saline, higher = longer survival) of the same molecule?
Answer: Its T/C is 91 % of control.
